Laboratory results reported in US9765074B2, “Inhibitors of the renal outer medullary potassium channel” (Merck Sharp & Dohme Corp., priority 2013, dated 2017).

biological target: T1, hROMK (hKir1.1) (Homo sapiens, UniProt P48048); assay: Thallium Flux Assay (ROMK channel functional thallium flux, FLIPR-Tetra); assay type: cell-based; conditions: HEK293 cells stably expressing hROMK (hKir1.1); 30 min compound incubation
T1 construct: expressed in transfected cells
T1 sequence (P48048 1-391): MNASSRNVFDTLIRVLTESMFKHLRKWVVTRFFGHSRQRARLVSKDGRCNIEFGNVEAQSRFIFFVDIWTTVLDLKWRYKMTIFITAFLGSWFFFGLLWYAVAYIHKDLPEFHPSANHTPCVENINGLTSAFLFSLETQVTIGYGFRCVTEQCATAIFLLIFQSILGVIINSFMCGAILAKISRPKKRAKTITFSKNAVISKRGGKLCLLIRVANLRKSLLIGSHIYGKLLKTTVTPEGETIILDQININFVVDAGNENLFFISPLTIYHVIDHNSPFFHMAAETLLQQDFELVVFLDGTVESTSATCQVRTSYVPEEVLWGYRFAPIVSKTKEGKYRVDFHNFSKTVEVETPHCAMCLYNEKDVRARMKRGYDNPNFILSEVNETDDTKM
Procedure, shortened: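 HEK293 cells stably expressing hKir1.1, loaded with FluxOR dye for 90 min, then preincubated with compound for 30 min at ambient temperature with 0.3 mM ouabain and probenecid. Stimulated with 3 mM thallium/0.3 mM potassium (final); fluorescence read ~10 min. Normalized to 3 μM reference ROMK inhibitor; IC50 from inhibition of flux.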

In order of rising IC50:
1. COc1cc(-n2cnnn2)ccc1[C@@H](O)CN1CCC2(CC1)CCN(C1=C(C)C(=O)OC1)C2=O [Example 119, 8-{(2R)-2-hydroxy-2-[2-methoxy-4-(1H-tetrazol-1-yl)phenyl]ethyl}-2-(4-methyl-5-oxo-2,5-dihydrofuran-3-yl)-1-oxo-2-aza-8-azoniaspiro[4.5]decane]  10 nM
2. COc1cc(-n2cnnn2)ccc1[C@H](O)CN1CCC2(CC1)CCN(C1=C(C)C(=O)OC1)C2=O [Example 120, 8-{(2S)-2-hydroxy-2-[2-methoxy-4-(1H-tetrazol-1-yl)phenyl]ethyl}-2-(4-methyl-5-oxo-2,5-dihydrofuran-3-yl)-1-oxo-2-aza-8-azoniaspiro[4.5]decane]  10 nM
3. CC1=C(N2CCC3(CCN(C[C@@H](O)c4nnc(-n5cnnn5)cc4C)CC3)C2=O)COC1=O [Example 122, 8-{(2R)-2-hydroxy-2-[4-methyl-6-(1H-tetrazol-1-yl)pyridazin-3-yl]ethyl}-2-(4-methyl-5-oxo-2,5-dihydrofuran-3-yl)-1-oxo-2-aza-8-azoniaspiro[4.5]decane]  10 nM
4. CC1=C(N2CC(=O)C3(CCN(C[C@H](O)c4ccc(-n5cnnn5)nc4)CC3)C2=O)COC1=O [Example 97, 8-{(2R)-2-hydroxy-2-[6-(1H-tetrazol-1-yl)pyridin-3-yl]ethyl}-2-[4-methyl-5-oxo-2,5-dihydrofuran-3-yl)-1,4-dioxo-2-aza-8-azoniaspiro[4.5]decane]  20 nM
5. CC1=C(N2CCC3(CCN(C[C@H](O)c4nnc(-n5cnnn5)cc4C)CC3)C2=O)COC1=O [Example 121, 8-{(2S)-2-hydroxy-2-[4-methyl-6-(1H-tetrazol-1-yl)pyridazin-3-yl]ethyl}-2-(4-methyl-5-oxo-2,5-dihydrofuran-3-yl)-1-oxo-2-aza-8-azoniaspiro[4.5]decane]  20 nM
6. CC1=C(N2CCC3(CCN(C[C@@H](O)c4cc(C)c(-n5cnnn5)nn4)CC3)C2=O)COC1=O [Example 127, 8-{(2R)-2-hydroxy-2-[5-methyl-6-(1H-tetrazol-1-yl)pyridazin-3-yl]ethyl}-2-(4-methyl-5-oxo-2,5-dihydrofuran-3-yl)-1-oxo-2-aza-8-azoniaspiro[4.5]decane]  20 nM
7. CC1=C(N2C=CC3(CCN(C[C@H](O)c4ccc(-n5cnnn5)nc4)CC3)C2=O)COC1=O [Example 116, 8-{(2R)-2-hydroxy-2-[6-(1H-tetrazol-1-yl)pyridin-3-yl]ethyl}-2-(4-methyl-5-oxo-2,5-dihydrofuran-3-yl)-1-oxo-2-aza-8-azoniaspiro[4.5]dec-3-ene]  30 nM
8. CC1=C(N2CCC3(CCN(C[C@H](O)c4ncc(-n5cnnn5)nc4C)CC3)C2=O)COC1=O [Example 98, 8-{(2S)-2-hydroxy-2-[3-methyl-5-(1H-tetrazol-1-yl)pyrazin-2-yl]ethyl}-2-(4-methyl-5-oxo-2,5-dihydrofuran-3-yl)-1-oxo-2-aza-8-azoniaspiro[4.5]decane]  40 nM
9. CC1=C(N2CCC3(CCN(C[C@@H](O)c4ncc(-n5cnnn5)nc4C)CC3)C2=O)COC1=O [Example 99, 8-{(2R)-2-hydroxy-2-[3-methyl-5-(1H-tetrazol-1-yl)pyrazin-2-yl]ethyl}-2-(4-methyl-5-oxo-2,5-dihydrofuran-3-yl)-1-oxo-2-aza-8-azoniaspiro[4.5]decane]  50 nM
10. CC1=C(N2CCC3(CCN(C[C@@H](O)c4ccc(-n5cnnn5)c(C#N)c4)CC3)C2=O)COC1=O [Example 96, 8-{(2S)-2-[3-cyano-4-(1H-tetrazol-1-yl)phenyl]-2-hydroxyethyl}-2-(4-methyl-5-oxo-2,5-dihydrofuran-3-yl)-1-oxo-2-aza-8-azoniaspiro[4.5]decane]  70 nM
11. CC1=C(N2CCC3(CC4CN(C)CC(C3)N4C[C@H](O)c3ccc(-n4cnnn4)nc3)C2=O)COC1=O (stereo partly drawn) [Example 112, (1R,5R,7R,9R)-9-{(2R)-2-hydroxy-2-[6-(1H-tetrazol-1-yl)pyridin-3-yl]ethyl}-7-methyl-1′-(4-methyl-5-oxo-2,5-dihydrofuran-3-yl)-2′-oxospiro[7,9-diazoniabicyclo[3.3.1]nonane-3,3′-pyrrolidine]]  410 nM
